Measured values published in patent US6689773B2, “Uracil substituted phenyl sulfamoyl carboxamides” (BASF Aktiengesellschaft, priority 2000, dated 2004).

Assays:
Assay type in all cases: in vivo
[1] = system: IPOHE, Morningglory, Ivyleaf, Ipomoea hederacea, (L)Jacq.; assay: Preemergence herbicidal evaluation (Example 148); settings: rating scale 0-9, two to four weeks after treatment
Procedure, shortened: (§1)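 Seeds mixed with potting soil were sown on about one inch of soil in cups, then sprayed preemergence with test compound in aqueous acetone at roughly 0.125 to 0.250 kg per hectare. Plants were grown in the greenhouse and rated visually 2–4 weeks later against a control.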

[2] = system: ZEAMX, Field corn, Zea mays L.; assay: Preemergence herbicidal evaluation (Example 148); settings: rating scale 0-9, two to four weeks after treatment
Procedure, shortened: as §1

[3] = system: SETVI, Green foxtail, Setaria viridis, (L.)Beau; assay: Preemergence herbicidal evaluation (Example 148); settings: rating scale 0-9, two to four weeks after treatment
Procedure, shortened: as §1

[4] = system: GLXMA, Soybean, Glycine max, (L.) Merr.; assay: Preemergence herbicidal evaluation (Example 148); settings: rating scale 0-9, two to four weeks after treatment
Procedure, shortened: as §1

[5] = system: ALOMY, Blackgrass, Alopecurus myosuroides; assay: Preemergence herbicidal evaluation (Example 148); settings: rating scale 0-9, two to four weeks after treatment
Procedure, shortened: as §1

[6] = system: AMBEL, Ragweed, Common, Ambrosia artemiisifolia, L.; assay: Preemergence herbicidal evaluation (Example 148); settings: rating scale 0-9, two to four weeks after treatment
Procedure, shortened: as §1

[7] = system: ABUTH, Velvetleaf, Abutilon theophrasti, Medic.; assay: Preemergence herbicidal evaluation (Example 148); settings: rating scale 0-9, two to four weeks after treatment
Procedure, shortened: as §1

[8] = system: TRZAW, Winter wheat, Tritium Aestivum, L. (Winter); assay: Preemergence herbicidal evaluation (Example 148); settings: rating scale 0-9, two to four weeks after treatment
Procedure, shortened: as §1

[9] = system: ECHCG, Barnyardgrass, Echinochloa crusgalli, (L.)Beau; assay: Preemergence herbicidal evaluation (Example 148); settings: rating scale 0-9, two to four weeks after treatment
Procedure, shortened: as §1

[10] = system: DIGSA, Crabgrass, (Hairy) L, Digitaria sanguinalis, (L)Scop; assay: Preemergence herbicidal evaluation (Example 148); settings: rating scale 0-9, two to four weeks after treatment
Procedure, shortened: as §1

[11] = system: CHEAL, Lambsquarters, Chenopodium album, L. Common; assay: Preemergence herbicidal evaluation (Example 148); settings: rating scale 0-9, two to four weeks after treatment
Procedure, shortened: as §1

[12] = system: XANST, Cocklebur, Xanthium strumariam; assay: Preemergence herbicidal evaluation (Example 148); settings: rating scale 0-9, two to four weeks after treatment
Procedure, shortened: as §1

[13] = system: IPOHE, Morningglory, Ivyleaf, Ipomoea hederacea, (L)Jacq.; assay: Postemergence herbicidal evaluation (Example 147); settings: rating scale 0-9, two to three weeks after treatment
Procedure, shortened: (§2)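 Values are 0-9 visual scores, averaged over repeat tests where available. Seedlings of about two weeks were sprayed with roughly 0.016 to 0.032 kg/ha in 80/20 acetone/water plus 1.0% seed oil, then held in the greenhouse two to three weeks.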

[14] = system: ZEAMX, Field corn, Zea mays L.; assay: Postemergence herbicidal evaluation (Example 147); settings: rating scale 0-9, two to three weeks after treatment
Procedure, shortened: as §2

[15] = system: SETVI, Green foxtail, Setaria viridis, (L.)Beau; assay: Postemergence herbicidal evaluation (Example 147); settings: rating scale 0-9, two to three weeks after treatment
Procedure, shortened: as §2

[16] = system: GLXMA, Soybean, Glycine max, (L.) Merr.; assay: Postemergence herbicidal evaluation (Example 147); settings: rating scale 0-9, two to three weeks after treatment
Procedure, shortened: as §2

[17] = system: ALOMY, Blackgrass, Alopecurus myosuroides; assay: Postemergence herbicidal evaluation (Example 147); settings: rating scale 0-9, two to three weeks after treatment
Procedure, shortened: as §2

[18] = system: AMBEL, Ragweed, Common, Ambrosia artemiisifolia, L.; assay: Postemergence herbicidal evaluation (Example 147); settings: rating scale 0-9, two to three weeks after treatment
Procedure, shortened: as §2

[19] = system: ABUTH, Velvetleaf, Abutilon theophrasti, Medic.; assay: Postemergence herbicidal evaluation (Example 147); settings: rating scale 0-9, two to three weeks after treatment
Procedure, shortened: as §2

[20] = system: TRZAW, Winter wheat, Tritium Aestivum, L. (Winter); assay: Postemergence herbicidal evaluation (Example 147); settings: rating scale 0-9, two to three weeks after treatment
Procedure, shortened: as §2

[21] = system: ECHCG, Barnyardgrass, Echinochloa crusgalli, (L.)Beau; assay: Postemergence herbicidal evaluation (Example 147); settings: rating scale 0-9, two to three weeks after treatment
Procedure, shortened: as §2

[22] = system: DIGSA, Crabgrass, (Hairy) L, Digitaria sanguinalis, (L)Scop; assay: Postemergence herbicidal evaluation (Example 147); settings: rating scale 0-9, two to three weeks after treatment
Procedure, shortened: as §2

[23] = system: CHEAL, Lambsquarters, Chenopodium album, L. Common; assay: Postemergence herbicidal evaluation (Example 147); settings: rating scale 0-9, two to three weeks after treatment
Procedure, shortened: as §2

[24] = system: XANST, Cocklebur, Xanthium strumariam; assay: Postemergence herbicidal evaluation (Example 147); settings: rating scale 0-9, two to three weeks after treatment
Procedure, shortened: as §2

CCC(C)N(C)S(=O)(=O)NC(=O)c1cc(-n2c(=O)cc(C(F)(F)F)n(C)c2=O)c(F)cc1Cl (stereo not drawn) [Example 69]
9.0: Preemergence herbicidal rating IPOHE ([1]; rate 0.125 kg/ha) | Preemergence herbicidal rating IPOHE ([1]; rate 0.25 kg/ha) | Preemergence herbicidal rating AMBEL ([6]; rate 0.25 kg/ha) | Preemergence herbicidal rating ABUTH ([7]; rate 0.125 kg/ha) | Preemergence herbicidal rating ABUTH ([7]; rate 0.25 kg/ha) | Preemergence herbicidal rating CHEAL ([11]; rate 0.125 kg/ha) | Preemergence herbicidal rating CHEAL ([11]; rate 0.25 kg/ha) | Postemergence herbicidal rating IPOHE ([13]; rate 0.016 kg/ha) | Postemergence herbicidal rating IPOHE ([13]; rate 0.032 kg/ha) | Postemergence herbicidal rating AMBEL ([18]; rate 0.016 kg/ha) | Postemergence herbicidal rating AMBEL ([18]; rate 0.032 kg/ha) | Postemergence herbicidal rating ABUTH ([19]; rate 0.016 kg/ha) | Postemergence herbicidal rating ABUTH ([19]; rate 0.032 kg/ha) | Postemergence herbicidal rating XANST ([24]; rate 0.016 kg/ha) | Postemergence herbicidal rating XANST ([24]; rate 0.032 kg/ha)
3.0: Preemergence herbicidal rating ZEAMX ([2]; rate 0.25 kg/ha) | Preemergence herbicidal rating GLXMA ([4]; rate 0.25 kg/ha) | Preemergence herbicidal rating ECHCG ([9]; rate 0.25 kg/ha) | Preemergence herbicidal rating DIGSA ([10]; rate 0.125 kg/ha) | Preemergence herbicidal rating DIGSA ([10]; rate 0.25 kg/ha) | Preemergence herbicidal rating XANST ([12]; rate 0.125 kg/ha)
8.0: Preemergence herbicidal rating AMBEL ([6]; rate 0.125 kg/ha) | Postemergence herbicidal rating GLXMA ([16]; rate 0.016 kg/ha) | Postemergence herbicidal rating GLXMA ([16]; rate 0.032 kg/ha) | Postemergence herbicidal rating CHEAL ([23]; rate 0.016 kg/ha) | Postemergence herbicidal rating CHEAL ([23]; rate 0.032 kg/ha)
2.0: Preemergence herbicidal rating ZEAMX ([2]; rate 0.125 kg/ha) | Preemergence herbicidal rating ECHCG ([9]; rate 0.125 kg/ha) | Postemergence herbicidal rating ALMOY ([17]; rate 0.032 kg/ha)
4.0: Preemergence herbicidal rating XANST ([12]; rate 0.25 kg/ha) | Postemergence herbicidal rating DIGSA ([22]; rate 0.016 kg/ha)
6.0: Postemergence herbicidal rating SETVI ([15]; rate 0.032 kg/ha) | Postemergence herbicidal rating DIGSA ([22]; rate 0.032 kg/ha)
7.0: Postemergence herbicidal rating ZEAMX ([14]; rate 0.016 kg/ha) | Postemergence herbicidal rating ECHCG ([21]; rate 0.032 kg/ha)
0.0: Preemergence herbicidal rating SETVI ([3]; rate 0.125 kg/ha) | Preemergence herbicidal rating GLXMA ([4]; rate 0.125 kg/ha) | Preemergence herbicidal rating ALMOY ([5]; rate 0.125 kg/ha) | Preemergence herbicidal rating ALMOY ([5]; rate 0.25 kg/ha) | Preemergence herbicidal rating TRZAW ([8]; rate 0.125 kg/ha) | Preemergence herbicidal rating TRZAW ([8]; rate 0.25 kg/ha)
7.5: Postemergence herbicidal rating ZEAMX ([14]; rate 0.032 kg/ha)
1.0: Preemergence herbicidal rating SETVI ([3]; rate 0.25 kg/ha) | Postemergence herbicidal rating ALMOY ([17]; rate 0.016 kg/ha)
5.0: Postemergence herbicidal rating SETVI ([15]; rate 0.016 kg/ha) | Postemergence herbicidal rating TRZAW ([20]; rate 0.016 kg/ha) | Postemergence herbicidal rating ECHCG ([21]; rate 0.016 kg/ha)
6.5: Postemergence herbicidal rating TRZAW ([20]; rate 0.032 kg/ha)
